Data taken from ChEMBL document CHEMBL5665443, “Enzyme Inhibitor Single Concentration assay results for EUbOPEN Chemogenomics Library” (2024).

How the values were obtained:
Details in all cases: Hit No
[1] = molecular target: T1, Adenine DNA glycosylase (Homo sapiens) (UniProt Q9UIF7);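 also: human MUTYH activity read as 594 nm fluorescence from cleavage and release of a quenched DNA duplex, coupled with APE1 for strand incision, lower signal meaning inhibition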
T1 sequence (whole entry): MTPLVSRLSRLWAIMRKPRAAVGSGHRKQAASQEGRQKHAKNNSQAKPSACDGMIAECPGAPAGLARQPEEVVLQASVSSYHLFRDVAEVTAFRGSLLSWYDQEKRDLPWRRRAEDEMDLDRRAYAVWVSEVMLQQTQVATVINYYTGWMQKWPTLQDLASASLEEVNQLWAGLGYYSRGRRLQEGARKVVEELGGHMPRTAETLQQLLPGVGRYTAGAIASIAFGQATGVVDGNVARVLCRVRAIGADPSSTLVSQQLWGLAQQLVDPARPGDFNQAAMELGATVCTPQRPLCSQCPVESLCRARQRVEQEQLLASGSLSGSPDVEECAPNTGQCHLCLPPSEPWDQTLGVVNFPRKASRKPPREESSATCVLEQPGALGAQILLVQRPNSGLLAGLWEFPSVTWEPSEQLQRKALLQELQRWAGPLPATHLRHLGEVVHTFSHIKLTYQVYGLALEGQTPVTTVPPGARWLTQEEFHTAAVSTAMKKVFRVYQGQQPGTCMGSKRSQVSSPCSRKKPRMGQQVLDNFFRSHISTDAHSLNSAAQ
Description: Inhibition of MUTYH by quantifying inhibition of MUTYH-mediated cleavage and dissociation of quenched duplex DNA oligonucleotides, measured as fluorescence at 594 nm. To generate a functional strand incision and increase turn-over this assay is coupled to APE1.

[2] = molecular target: T2, Endonuclease 8-like 2 (Homo sapiens) (UniProt Q969S2);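 also: fluorescence at 594 nm reports NEIL2 cutting and release of a quenched double-stranded DNA oligo substrate, reduced signal read as inhibition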
T2 sequence (whole entry): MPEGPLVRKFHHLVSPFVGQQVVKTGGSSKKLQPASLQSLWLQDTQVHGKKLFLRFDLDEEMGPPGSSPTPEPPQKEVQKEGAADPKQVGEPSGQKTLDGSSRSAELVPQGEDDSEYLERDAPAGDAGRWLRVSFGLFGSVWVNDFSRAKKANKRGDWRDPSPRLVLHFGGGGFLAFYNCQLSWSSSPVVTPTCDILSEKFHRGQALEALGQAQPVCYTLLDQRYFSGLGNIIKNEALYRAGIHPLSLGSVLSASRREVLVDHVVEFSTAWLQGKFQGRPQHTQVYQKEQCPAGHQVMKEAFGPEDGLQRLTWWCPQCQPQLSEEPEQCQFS
Description: Inhibition of NEIL2 by quantifying inhibition of NEIL2-mediated cleavage and dissociation of quenched duplex DNA oligonucleotides, measured as fluorescence at 594 nm.

[3] = molecular target: Endonuclease 8-like 1 (Homo sapiens) (UniProt Q96FI4);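 also: fluorescence at 594 nm from quenched duplex DNA oligonucleotides released by NEIL1 cleavage and strand separation, reported as reduction of this enzyme activity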
Description: Inhibition of NEIL1 by quantifying inhibition of NEIL1-mediated cleavage and dissociation of quenched duplex DNA oligonucleotides, measured as fluorescence at 594 nm.

[4] = molecular target: Methyl-CpG-binding domain protein 4 (Homo sapiens) (UniProt O95243);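 also: MBD4 activity read as fluorescence at 594 nm from cleavage and release of a quenched duplex DNA oligonucleotide, with APE1 coupled to incise the strand and raise turnover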
Description: Inhibition of MBD4 by quantifying inhibition of MBD4-mediated cleavage and dissociation of quenched duplex DNA oligonucleotides, measured as fluorescence at 594 nm. To generate a functional strand incision and increase turn-over this assay is coupled to APE1.

[5] = molecular target: G/T mismatch-specific thymine DNA glycosylase (Homo sapiens) (UniProt Q13569);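 also: human TDG cleavage of quenched duplex DNA oligonucleotides coupled to APE1, strand release read as fluorescence at 594 nm, inhibition of TDG activity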
Description: Inhibition of TDG by quantifying inhibition of TDG-mediated cleavage and dissociation of quenched duplex DNA oligonucleotides, measured as fluorescence at 594 nm. To generate a functional strand incision and increase turn-over this assay is coupled to APE1.

[6] = molecular target: Uracil-DNA glycosylase (Homo sapiens) (UniProt P13051);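 also: UNG excision on a quenched double-stranded DNA oligo probe, with APE1 added for strand incision and turnover, read as fluorescence at 594 nm as strands separate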
Description: Inhibition of UNG by quantifying inhibition of UNG-mediated cleavage and dissociation of quenched duplex DNA oligonucleotides, measured as fluorescence at 594 nm. To generate a functional strand incision and increase turn-over this assay is coupled to APE1.

[7] = molecular target: T3, Single-strand selective monofunctional uracil DNA glycosylase (Homo sapiens) (UniProt Q53HV7);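 also: enzymatic SMUG1 assay coupled with APE1, reading fluorescence at 594 nm released when a quenched double-stranded DNA oligonucleotide substrate is cleaved and separated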
T3 sequence (whole entry): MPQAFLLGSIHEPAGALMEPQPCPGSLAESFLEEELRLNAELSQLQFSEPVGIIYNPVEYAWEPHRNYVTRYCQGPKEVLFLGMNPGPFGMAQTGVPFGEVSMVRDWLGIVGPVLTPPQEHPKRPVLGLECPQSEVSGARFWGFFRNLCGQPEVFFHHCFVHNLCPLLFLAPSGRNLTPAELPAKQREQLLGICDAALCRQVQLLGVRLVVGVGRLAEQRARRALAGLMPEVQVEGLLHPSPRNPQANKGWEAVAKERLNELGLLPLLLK
Description: Inhibition of SMUG1 by quantifying inhibition of SMUG1-mediated cleavage and dissociation of quenched duplex DNA oligonucleotides, measured as fluorescence at 594 nm. To generate a functional strand incision and increase turn-over this assay is coupled to APE1.

[8] = molecular target: N-glycosylase/DNA lyase (Homo sapiens) (UniProt O15527);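 also: OGG1 cleavage of a quenched duplex DNA oligonucleotide, coupled to APE1 for strand incision, read as fluorescence at 594 nm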
Sequence of N-glycosylase/DNA lyase (Homo sapiens) (O15527 whole entry): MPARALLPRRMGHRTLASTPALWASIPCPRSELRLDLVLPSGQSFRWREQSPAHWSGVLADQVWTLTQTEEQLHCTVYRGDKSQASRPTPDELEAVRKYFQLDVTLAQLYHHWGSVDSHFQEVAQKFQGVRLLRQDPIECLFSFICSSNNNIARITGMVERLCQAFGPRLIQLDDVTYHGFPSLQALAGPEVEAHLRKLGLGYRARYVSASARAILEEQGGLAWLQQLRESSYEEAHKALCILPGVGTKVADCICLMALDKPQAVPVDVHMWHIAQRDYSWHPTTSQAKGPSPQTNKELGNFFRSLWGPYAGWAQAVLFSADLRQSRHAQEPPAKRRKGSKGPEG
Description: Inhibition of OGG1 by quantifying inhibition of OGG1-mediated cleavage and dissociation of quenched duplex DNA oligonucleotides, measured as fluorescence at 594 nm. To generate a functional strand incision and increase turn-over this assay is coupled to APE1.

Sequence of Endonuclease 8-like 1 (Homo sapiens) (Q96FI4 whole entry, the tested form may be a part): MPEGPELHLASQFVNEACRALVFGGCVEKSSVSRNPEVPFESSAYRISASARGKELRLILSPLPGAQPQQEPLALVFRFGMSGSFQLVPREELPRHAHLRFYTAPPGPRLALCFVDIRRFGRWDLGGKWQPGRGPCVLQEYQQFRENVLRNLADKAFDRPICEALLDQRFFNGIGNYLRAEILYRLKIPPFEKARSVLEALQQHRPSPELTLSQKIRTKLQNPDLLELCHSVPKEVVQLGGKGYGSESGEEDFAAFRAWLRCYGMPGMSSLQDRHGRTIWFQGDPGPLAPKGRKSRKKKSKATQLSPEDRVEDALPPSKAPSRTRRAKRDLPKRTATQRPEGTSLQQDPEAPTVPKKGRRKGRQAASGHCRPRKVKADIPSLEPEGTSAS
Sequence of Methyl-CpG-binding domain protein 4 (Homo sapiens) (O95243 whole entry, the tested form may be a part): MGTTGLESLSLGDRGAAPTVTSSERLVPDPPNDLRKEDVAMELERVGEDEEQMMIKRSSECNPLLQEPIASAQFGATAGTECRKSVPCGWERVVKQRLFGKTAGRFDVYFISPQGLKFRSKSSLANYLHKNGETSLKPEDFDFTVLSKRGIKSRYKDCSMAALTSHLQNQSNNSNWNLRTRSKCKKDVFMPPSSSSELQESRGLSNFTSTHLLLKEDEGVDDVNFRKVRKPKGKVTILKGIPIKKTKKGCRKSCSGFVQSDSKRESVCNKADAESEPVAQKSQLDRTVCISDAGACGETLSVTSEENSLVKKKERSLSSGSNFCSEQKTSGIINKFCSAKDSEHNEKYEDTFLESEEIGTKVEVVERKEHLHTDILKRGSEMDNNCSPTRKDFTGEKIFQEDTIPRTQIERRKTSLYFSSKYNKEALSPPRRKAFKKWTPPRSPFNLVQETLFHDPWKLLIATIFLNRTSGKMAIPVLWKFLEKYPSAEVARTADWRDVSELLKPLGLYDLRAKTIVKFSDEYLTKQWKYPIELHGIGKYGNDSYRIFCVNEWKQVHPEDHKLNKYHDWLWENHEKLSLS
Sequence of G/T mismatch-specific thymine DNA glycosylase (Homo sapiens) (Q13569 whole entry): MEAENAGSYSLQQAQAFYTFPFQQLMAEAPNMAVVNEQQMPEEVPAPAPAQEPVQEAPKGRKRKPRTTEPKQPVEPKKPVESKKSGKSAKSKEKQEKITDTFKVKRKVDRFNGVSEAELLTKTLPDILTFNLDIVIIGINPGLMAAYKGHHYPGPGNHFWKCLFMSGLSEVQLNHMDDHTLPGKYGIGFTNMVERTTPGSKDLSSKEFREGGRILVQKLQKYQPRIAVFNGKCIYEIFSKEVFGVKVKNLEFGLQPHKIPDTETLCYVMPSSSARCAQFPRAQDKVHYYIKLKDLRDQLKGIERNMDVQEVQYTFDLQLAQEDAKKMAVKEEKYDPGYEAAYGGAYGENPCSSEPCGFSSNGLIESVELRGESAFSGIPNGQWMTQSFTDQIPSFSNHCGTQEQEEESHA
Sequence of Uracil-DNA glycosylase (Homo sapiens) (P13051 whole entry): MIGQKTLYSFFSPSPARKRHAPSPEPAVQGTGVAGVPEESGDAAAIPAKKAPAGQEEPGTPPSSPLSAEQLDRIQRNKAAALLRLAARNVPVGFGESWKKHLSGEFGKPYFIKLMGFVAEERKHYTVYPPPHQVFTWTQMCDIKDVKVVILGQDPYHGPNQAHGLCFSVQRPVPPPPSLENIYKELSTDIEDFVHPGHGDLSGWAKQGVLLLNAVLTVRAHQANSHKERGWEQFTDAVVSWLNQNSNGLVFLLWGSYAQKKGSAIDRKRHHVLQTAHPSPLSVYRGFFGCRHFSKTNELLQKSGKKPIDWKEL

SMILES	inhibition ([1]; Compound Concentration 10.0 uM) [%]	inhibition ([2]; Compound Concentration 10.0 uM) [%]	inhibition ([3]; Compound Concentration 10.0 uM) [%]	inhibition ([4]; Compound Concentration 10.0 uM) [%]	inhibition ([5]; Compound Concentration 10.0 uM) [%]	inhibition ([6]; Compound Concentration 10.0 uM) [%]	inhibition ([7]; Compound Concentration 10.0 uM) [%]	inhibition ([8]; Compound Concentration 10.0 uM) [%]	inhibition ([1]; Compound Concentration 1.0 uM) [%]	inhibition ([2]; Compound Concentration 1.0 uM) [%]	inhibition ([3]; Compound Concentration 1.0 uM) [%]	inhibition ([4]; Compound Concentration 1.0 uM) [%]	inhibition ([5]; Compound Concentration 1.0 uM) [%]	inhibition ([6]; Compound Concentration 1.0 uM) [%]	inhibition ([7]; Compound Concentration 1.0 uM) [%]	inhibition ([8]; Compound Concentration 1.0 uM) [%]
O=C(Nc1nc2cccc(-c3ccc(CN4CCS(=O)(=O)CC4)cc3)n2n1)C1CC1	3.59	-1.92	-4.22	-0.894	66.4	2.98	27.3	1.15	–	–	–	–	–	–	–	–
O=S(=O)(Nc1ccc(C(O)(C(F)(F)F)C(F)(F)F)cc1)c1cccs1	12.6	-2.02	-9.23	63.6	99.8	4.47	19.9	9.18	–	–	–	–	–	–	–	–
COc1cc(-c2cn([C@H]3CCc4c(F)cccc4N(CC(F)(F)F)C3=O)nn2)ccc1-n1cnc(C)c1	0.879	11.2	-9.83	40	47.4	4.8	19.7	6.38	–	–	–	–	–	–	–	–
CCCOc1ccc([C@@H]2[C@@H](C(=O)O)[C@H](c3ccc4c(c3)OCO4)CN2CC(=O)Nc2c(CC)cccc2CC)cc1	–	–	–	–	–	–	–	–	-8.3	9.71	-3.17	66.2	57.1	4.27	18.8	12
COc1cc2ncn(-c3cc(OCc4ccccc4C(F)(F)F)c(C(N)=O)s3)c2cc1OC	–	–	–	–	–	–	–	–	-6.25	-8.65	-7	6.17	35.1	3.27	10.2	0.727
Nc1c(C(=O)NCc2ccc(C(=O)NCCCC3CCCCC3)cc2)cnn1-c1ccccc1	5.04	–	–	–	35.6	4.78	-1.31	19.8	–	-8.91	-2.11	59.9	47	-7.24	3.4	3.23
CC(C)c1c(CN(C)C(C)Cc2ccccc2)n(C)n(-c2ccccc2)c1=O (centres undefined)	11	-4.57	0.921	64.9	100	1.7	23.9	21.4	–	–	–	–	–	–	–	–
CC[C@H](CO)Nc1nc(NCc2ccccc2)c2ncn(C(C)C)c2n1	-2.91	-5.42	6.48	-1.52	38.4	0.726	-5.13	-9.3	–	–	–	–	–	–	–	–
O=C(Nc1ccc(C(O)(C(F)(F)F)C(F)(F)F)cc1)c1ccc(C(F)(F)F)cc1	3.77	-7.89	-5.59	54.8	98	11.1	23.5	30.3	–	–	–	–	–	–	–	–
Cc1nc(Cc2cccc(C(F)(F)F)c2)sc1-c1ccc(C(N)=O)nc1	–	–	–	–	–	–	–	–	-2.4	-3.29	-5.59	52	96.5	-0.747	6	0.0328
CN1CCN(c2cnc3c(C4CCN(C(=O)c5ccc(OC(F)(F)F)cc5N)CC4)ncnc3c2)CC1	2.58	-8.19	-2.58	22.6	43.6	5.02	11.7	-1.54	–	–	–	–	–	–	–	–
NC1(c2ccc(-c3nc4ccn5c(=O)[nH]nc5c4cc3-c3ccccc3)cc2)CCC1	56.1	-9.46	17.6	37.9	71.2	17.3	29.1	10.8	–	–	–	–	–	–	–	–
CCN(Cc1ccc(Cl)cc1)c1ncc(C(=O)NCCCN2CCCC2=O)c(NC2CCCC2)n1	3.34	-8.65	-2.37	-8.97	63.4	8.58	17.5	-2.04	–	–	–	–	–	–	–	–
COc1cc(Nc2ncc3c(n2)-c2ccc(Cl)cc2C(c2c(F)cccc2OC)=NC3)ccc1C(=O)O	–	–	–	–	–	–	–	–	-7.52	-9.46	-3.03	19.9	47.7	-1.28	19.5	4.44
O=C(NC[C@@H]1[C@H]2CN(C(=O)OCc3cc(C(F)(F)F)cc(C(F)(F)F)c3)C[C@@H]12)c1ccc2[nH]nnc2c1	-6.99	-6.36	-8.32	48.7	43.8	-1.24	8.85	19.9	–	–	–	–	–	–	–	–
CC(=O)c1c(C)c2cnc(Nc3ccc(N4CCNCC4)cn3)nc2n(C2CCCC2)c1=O	–	–	–	–	–	–	–	–	37.5	2.12	8.59	-1.7	39.5	3.08	19.2	4.49
O=C(c1cc2c(cc1F)OC(c1ccc(F)cc1)(c1ccc(Cl)cc1Cl)O2)N1CCOCC1 (centres undefined)	25.5	8.5	3.95	-9.38	17.8	-5.46	5.83	-5.3	–	–	–	–	–	–	–	–
CNC(=O)Nc1ccc2c(c1)[C@@]1(CC2)OC(=O)N(CC(=O)N(Cc2ccc(F)cc2)[C@@H](C)C(F)(F)F)C1=O	–	–	–	–	–	–	–	–	0.0592	-2.53	-6.35	67.4	98.8	4.4	22.4	-0.951
O=C(Cc1ccccc1)Nc1nnc(N2CC[C@@H]3[C@H]2CN3c2cccnn2)s1	–	–	–	–	–	–	–	–	7.76	-8.65	0.316	66	43.7	9.87	9.42	3.62
CCOC(=O)c1cc2cc(-c3cc(C(=O)NCc4ccc(C(=O)O)cc4)nn3C)ccc2[nH]1	–	–	–	–	–	–	–	–	-1.36	11.2	-4.68	61	41.7	-2.54	6.69	9.53
NS(=O)(=O)c1cc(NC(=O)Cc2ccccc2)ccc1Oc1cccc(Cl)c1	-0.214	-2.53	-8.47	54.5	87.5	6.44	25.9	16.9	–	–	–	–	–	–	–	–
CCC(C)N(C)C(=O)c1cc2ccccc2c(-c2ccccc2Cl)n1 (centres undefined)	1.15	3.59	-9.53	67	99.2	7.72	22.8	15.1	–	–	–	–	–	–	–	–
C[C@@H]1CN(c2ncc(Cl)c(Nc3ccc4c(c3)n(CCC(C)(C)O)c(=O)n4C)n2)C[C@H](C)C1(F)F	2.19	-9.67	–	66.3	57.5	9.4	18	-2.08	–	–	–	–	–	–	–	–
CCNC(=O)c1cc2c(N3CCOC[C@@H]3C)ccnc2n1C	-5.18	-9.42	–	67	31.4	-0.625	6.82	11.4	–	–	–	–	–	–	–	–
